This is an account of results in patent US20110082130A1 (LIGAND PHARMACEUTICALS, INC., priority 2006, published 2011).

In the first test the target is T1, chimeric human H3 receptor (Homo sapiens, UniProt Q9Y5N1).
T1 construct: made in house; host or cells: Sf9 insect cells (baculovirus); P2 membrane preparation
T1 sequence (Q9Y5N1 with tags, fused parts or gaps): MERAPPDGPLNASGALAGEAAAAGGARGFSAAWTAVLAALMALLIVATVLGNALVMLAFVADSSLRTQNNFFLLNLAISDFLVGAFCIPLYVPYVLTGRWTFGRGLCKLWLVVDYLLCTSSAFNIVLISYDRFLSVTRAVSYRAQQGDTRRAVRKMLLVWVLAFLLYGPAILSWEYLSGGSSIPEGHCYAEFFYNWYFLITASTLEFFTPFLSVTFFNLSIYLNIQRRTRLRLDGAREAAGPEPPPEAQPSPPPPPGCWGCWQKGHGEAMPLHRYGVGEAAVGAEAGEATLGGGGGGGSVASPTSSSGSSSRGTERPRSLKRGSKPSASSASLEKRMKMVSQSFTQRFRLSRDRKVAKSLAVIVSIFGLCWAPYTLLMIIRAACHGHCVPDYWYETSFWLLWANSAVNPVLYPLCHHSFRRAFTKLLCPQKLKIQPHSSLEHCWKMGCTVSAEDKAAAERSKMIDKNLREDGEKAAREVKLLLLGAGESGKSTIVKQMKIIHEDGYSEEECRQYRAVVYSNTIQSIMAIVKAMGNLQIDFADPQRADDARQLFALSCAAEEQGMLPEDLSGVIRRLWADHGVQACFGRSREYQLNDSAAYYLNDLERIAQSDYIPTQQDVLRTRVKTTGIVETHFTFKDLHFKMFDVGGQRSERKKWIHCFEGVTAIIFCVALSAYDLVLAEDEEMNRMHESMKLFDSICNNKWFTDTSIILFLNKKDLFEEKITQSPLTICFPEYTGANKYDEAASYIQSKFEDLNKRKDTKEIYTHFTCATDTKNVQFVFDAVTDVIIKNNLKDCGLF
The test can be described thus: Chimeric human H3 receptor screening GTP binding assay (inhibition of histamine-stimulated GTP-gamma35S binding, Example 8). In kind it is biochemical. To be noted: 4 μM of the compound, 1 μM histamine, "†" in Ki of Table II, read-out: percent inhibition of the signal obtained with 1 μM histamine. Put shortly:
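Values are percent inhibition of 1 μM histamine-stimulated GTP-gamma35S […] binding, with non-specific binding (10 μM GTP-gammaS) subtracted, by compounds tested at 4 μM. Membranes (35 μg) from Sf9 cells expressing chimeric human H3 with G-protein subunits were used in Tris pH 7.4 buffer with 10 μM GDP. Incubation lasted 60 min at room temperature, followed by filtration and scintillation counting.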
Broadly, the inhibition is the percentage by which the read-out fell short of the control. In the case of `Cc1cc(-c2ccc3c(c2)CCN(CC(=O)N2CCN(C4CCCC4)CC2)C3)ccc1F` [Compound 430, 2-[2-(4-cyclopentylpiperazin-1-yl)-2-oxoethyl]-6-(4-fluoro-3-methylphenyl)-1,2,3,4-tetrahydroisoquinoline], the inhibition at 4 µM is no less than 90%. As for `O=C(CN1CCc2nc(-c3ccccc3Oc3ccccc3)sc2C1)N1CCN(C2CCC2)CC1` [Compound 345, 5-[2-(4-cyclobutylpiperazin-1-yl)-2-oxoethyl]-2-(2-phenoxyphenyl)-4,5,6,7-tetrahydro[1,3] thiazolo[5,4-c]pyridine], the inhibition at 4 µM was no less than 90%.

Consider `Cc1ccc(-c2ccc3c(c2)CCN(CC(=O)N2CCN(C4CCC4)CC2)C3)cc1` [Compound 435, 2-[2-(4-cyclobutylpiperazin-1-yl)-2-oxoethyl]-6-(4-methylphenyl)-1,2,3,4-tetrahydroisoquinoline], for which the inhibition at 4 µM is no less than 90%. Take `CCc1ccc(-c2ccc3c(c2)CCN(CC(=O)N2CCN(C(C)C)CC2)C3)cc1` [Compound 462, 6-(4-ethylphenyl)-2-[2-(4-isopropylpiperazin-1-yl)-2-oxoethyl]-1,2,3,4-tetrahydroisoquinoline]: the inhibition at 4 µM was no less than 90%. Regarding `CCCc1ccc(-c2ccc3c(c2)CCN(CC(=O)N2CCN(C4CCCCC4)CC2)C3)cc1` [Compound 465, 2-[2-(4-cyclohexylpiperazin-1-yl)-2-oxoethyl]-6-(4-propylphenyl)-1,2,3,4-tetrahydroisoquinoline], the inhibition at 4 µM was no less than 90%. As to `CC(C)c1ccc(-c2ccc3c(c2)CCN(CC(=O)N2CCN(C4CCCC4)CC2)C3)cc1` [Compound 444, 2-[2-(4-cyclopentylpiperazin-1-yl)-2-oxoethyl]-6-(4-isopropylphenyl)-1,2,3,4-tetrahydroisoquinoline], the inhibition at 4 µM was no less than 90%.

As to `Cc1cc(C)cc(-c2ccc3c(c2)CCN(CC(=O)N2CCN(C4CCCCC4)CC2)C3)c1` [Compound 457, 2-[2-(4-cyclohexylpiperazin-1-yl)-2-oxoethyl]-6-(3,5-dimethylphenyl)-1,2,3,4-tetrahydroisoquinoline], the inhibition at 4 µM was no less than 90%. Consider `O=C(CN1CCc2cc(-c3cccc(Cl)c3)ccc2C1)N1CCN(C2CCC2)CC1` [Compound 401, 6-(3-chlorophenyl)-2-[2-(4-cyclobutylpiperazin-1-yl)-2-oxoethyl]-1,2,3,4-tetrahydroisoquinoline], for which the inhibition at 4 µM was no less than 90%. In the case of `O=C(CN1CCc2cc(-c3ccc(Cl)cc3)ccc2C1)N1CCN(C2CCC2)CC1` [Compound 404, 6-(4-chlorophenyl)-2-[2-(4-cyclobutylpiperazin-1-yl)-2-oxoethyl]-1,2,3,4-tetrahydroisoquinoline], the inhibition at 4 µM was no less than 90%. For the molecule `O=C(CN1CCc2cc(-c3cccc(Cl)c3)ccc2C1)N1CCN(C2CCCCC2)CC1` [Compound 403, 6-(3-chlorophenyl)-2-[2-(4-cyclohexylpiperazin-1-yl)-2-oxoethyl]-1,2,3,4-tetrahydroisoquinoline], the inhibition at 4 µM is no less than 90%. Consider `CCc1ccc(-c2ccc3c(c2)CCN(CC(=O)N2CCN(C4CCCCC4)CC2)C3)cc1` [Compound 461, 2-[2-(4-cyclohexylpiperazin-1-yl)-2-oxoethyl]-6-(4-ethylphenyl)-1,2,3,4-tetrahydroisoquinoline], for which the inhibition at 4 µM is no less than 90%.

Turning to `Cc1ccc(-c2ccc3c(c2)CCN(CC(=O)N2CCN(C4CCCCC4)CC2)C3)cc1C` [Compound 449, 2-[2-(4-cyclohexylpiperazin-1-yl)-2-oxoethyl]-6-(3,4-dimethylphenyl)-1,2,3,4-tetrahydroisoquinoline], the inhibition at 4 µM was no less than 90%. For the molecule `O=C(CN1CCc2cc(-c3ccc(Cl)cc3)ccc2C1)N1CCN(C2CCCCC2)CC1` [Compound 406, 6-(4-chlorophenyl)-2-[2-(4-cyclohexylpiperazin-1-yl)-2-oxoethyl]-1,2,3,4-tetrahydroisoquinoline], the inhibition at 4 µM is no less than 90%. On to `O=C(CN1CCc2cc(-c3ccccc3)ccc2C1)N1CCN(C2CCCC2)CC1` [Compound 399, 2-[2-(4-cyclopentylpiperazin-1-yl)-2-oxoethyl]-6-phenyl-1,2,3,4-tetrahydroisoquinoline], for which the inhibition at 4 µM is no less than 90%. As to `CCCc1ccc(-c2ccc3c(c2)CCN(CC(=O)N2CCN(C(C)C)CC2)C3)cc1` [Compound 466, 2-[2-(4-isopropylpiperazin-1-yl)-2-oxoethyl]-6-(4-propylphenyl)-1,2,3,4-tetrahydroisoquinoline], the inhibition at 4 µM was no less than 90%.

In the case of `Cc1ccc(-c2ccc3c(c2)CCN(CC(=O)N2CCN(C4CCC4)CC2)C3)c(F)c1` [Compound 420, 2-[2-(4-cyclobutylpiperazin-1-yl)-2-oxoethyl]-6-(2-fluoro-4-methylphenyl)-1,2,3,4-tetrahydroisoquinoline], the inhibition at 4 µM is no less than 90%.

The same test, now with this note: Table II "Ki", symbol †, 4 μM of the compound, 1 μM histamine, read-out: percent inhibition of the signal obtained with 1 μM histamine.
Consider `CCOc1cccc(-c2ccc3c(c2)CCN(CC(=O)N2CCN(C(C)C)CC2)C3)c1` [Compound 485, 6-(3-ethoxyphenyl)-2-[2-(4-isopropylpiperazin-1-yl)-2-oxoethyl]-1,2,3,4-tetrahydroisoquinoline], for which the inhibition at 4 µM is no less than 90%. Still for that read-out and setting: next, `O=C(CN1CCc2cc(-c3ccc(F)c(Cl)c3)ccc2C1)N1CCN(C2CCCC2)CC1` [Compound 580, 6-(3-chloro-4-fluorophenyl)-2-[2-(4-cyclopentylpiperazin-1-yl)-2-oxoethyl]-1,2,3,4-tetrahydroisoquinoline]: no less than 90%; `CN(C)c1ccc(-c2ccc3c(c2)CCN(CC(=O)N2CCN(C4CCCCC4)CC2)C3)cc1` [Compound 534, 4-{2-[2-(4-cyclohexylpiperazin-1-yl)-2-oxoethyl]-1,2,3,4-tetrahydroisoquinolin-6-yl}-N,N-dimethylaniline]: no less than 90%. For `COC1CCCN(c2ccc3c(n2)CCN(CC(=O)N2CCN(C4CCC4)CC2)C3)C1` (stereo not drawn) [Compound 671, 6-[2-(4-cyclobutylpiperazin-1-yl)-2-oxoethyl]-2-(3-methoxypiperidin-1-yl)-5,6,7,8-tetrahydro-1,6-naphthyridine], the inhibition at 4 µM was no less than 90%. On the same count and under the same terms, the same measure for `COc1ccc(-c2ccc3c(c2)CCN(CC(=O)N2CCN(C4CCCCC4)CC2)C3)cc1` [Compound 522]: no less than 90%.

Take `CCOc1ccccc1-c1ccc2c(c1)CCN(CC(=O)N1CCN(C3CCCCC3)CC1)C2` [Compound 568, 2-[2-(4-cyclohexylpiperazin-1-yl)-2-oxoethyl]-6-(2-ethoxyphenyl)-1,2,3,4-tetrahydroisoquinoline]: the inhibition at 4 µM is no less than 90%. For `COc1ccc(C(C)C)cc1-c1ccc2c(c1)CCN(CC(=O)N1CCN(C3CCCC3)CC1)C2` [Compound 555, 2-[2-(4-cyclopentylpiperazin-1-yl)-2-oxoethyl]-6-(5-isopropyl-2-methoxyphenyl)-1,2,3,4-tetrahydroisoquinoline], the inhibition at 4 µM was no less than 90%. As to `O=C(CN1CCc2cc(-c3ccc(Cl)c(F)c3)ccc2C1)N1CCN(C2CCCCC2)CC1` [Compound 593, 6-(4-chloro-3-fluorophenyl)-2-[2-(4-cyclohexylpiperazin-1-yl)-2-oxoethyl]-1,2,3,4-tetrahydroisoquinoline], the inhibition at 4 µM was no less than 90%. The same measure, in the same setting: the same measure for `COc1ccc(C)cc1-c1ccc2c(c1)CCN(CC(=O)N1CCN(C3CCCC3)CC1)C2` [Compound 573, 2-[2-(4-cyclopentylpiperazin-1-yl)-2-oxoethyl]-6-(2-methoxy-5-methylphenyl)-1,2,3,4-tetrahydroisoquinoline]: no less than 90%; for `CC(C)C(C)N1CCN(C(=O)CN2CCc3cc(-c4cncnc4)ccc3C2)CC1` (stereo not drawn) [Compound 607, 2-{2-[4-(1,2-dimethylpropyl)piperazin-1-yl]-2-oxoethyl}-6-pyrimidin-5-yl-1,2,3,4-tetrahydroisoquinoline]: no less than 90%; for `COc1ccc(-c2ccc3c(c2)CCN(CC(=O)N2CCN(C4CCCCC4)CC2)C3)c(C)c1` [Compound 550, 2-[2-(4-cyclohexylpiperazin-1-yl)-2-oxoethyl]-6-(4-methoxy-2-methylphenyl)-1,2,3,4-tetrahydroisoquinoline]: no less than 90%. In the case of `O=C(CN1CCc2cc(-c3ccc(F)c(F)c3)ccc2C1)N1CCN(C2CCCCC2)CC1` [Compound 591, 2-[2-(4-cyclohexylpiperazin-1-yl)-2-oxoethyl]-6-(3,4-difluorophenyl)-1,2,3,4-tetrahydroisoquinoline], the inhibition at 4 µM was no less than 90%.

With `CC(C)N1CCN(C(=O)CN2CCc3cc(-c4cccc(N(C)C)c4)ccc3C2)CC1` [Compound 539, 3-{2-[2-(4-isopropylpiperazin-1-yl)-2-oxoethyl]-1,2,3,4-tetrahydroisoquinolin-6-yl}-N,N-dimethylaniline], the inhibition at 4 µM is no less than 90%. In the case of `O=C(CN1CCc2cc(-c3ccc(Oc4ccccc4)cc3)ccc2C1)N1CCN(C2CCC2)CC1` [Compound 486, 2-[2-(4-cyclobutylpiperazin-1-yl)-2-oxoethyl]-6-(4-phenoxyphenyl)-1,2,3,4-tetrahydroisoquinoline], the inhibition at 4 µM is no less than 90%. For the molecule `COc1ccc2cc(-c3ccc4c(c3)CCN(CC(=O)N3CCN(C5CCCC5)CC3)C4)ccc2c1` [Compound 510, 2-[2-(4-cyclopentylpiperazin-1-yl)-2-oxoethyl]-6-(6-methoxy-2-naphthyl)-1,2,3,4-tetrahydroisoquinoline], the inhibition at 4 µM is no less than 90%. On to `O=C(CN1CCc2cc(-c3cccc(F)c3F)ccc2C1)N1CCN(C2CCC2)CC1` [Compound 599, 2-[2-(4-cyclobutylpiperazin-1-yl)-2-oxoethyl]-6-(2,3-difluorophenyl)-1,2,3,4-tetrahydroisoquinoline], for which the inhibition at 4 µM is no less than 90%. Same read-out and setting: the same measure for `O=C(CN1CCc2cc(-c3cc(F)ccc3F)ccc2C1)N1CCN(C2CCCC2)CC1` [Compound 583, 2-[2-(4-cyclopentylpiperazin-1-yl)-2-oxoethyl]-6-(2,5-difluorophenyl)-1,2,3,4-tetrahydroisoquinoline]: no less than 90%.
